Reference: ChEMBL document CHEMBL5046315, “CRCM5484: A BET-BDII Selective Compound with Differential Anti-leukemic Drug Modulation” (J Med Chem, 2022)
Calls of active or inactive are those of the source. The calls are words filed in the database; no cut-off is given here.

Legend:
[1] = biological target: Bromodomain-containing protein 4 (Homo sapiens, UniProt O60885); assay: Inhibition of human partial length BRD4-BD2 (K333 to E460 residues) expressed in bacterial system at 1 uM by BROMOscan method relative to control
[2] = system: CCRF-CEM; assay: Cytotoxicity against human CCRF-CEM cells assessed as reduction in cell viability incubated for 72 hrs; type: functional, cell-based
[3] = system: CCRF-CEM; assay: Potentiation of AC-4-130-induced antileukemic activity against human CCRF-CEM cells at 4.3 uM in presence of bone-marrow derived stromal cell-conditioned medium; type: functional, cell-based
[4] = system: CCRF-CEM; assay: Potentiation of alisertib-induced antileukemic activity against human CCRF-CEM cells at 4.3 uM in presence of bone-marrow derived stromal cell-conditioned medium; type: functional, cell-based
[5] = system: CCRF-CEM; assay: Potentiation of arsenic-induced antileukemic activity against human CCRF-CEM cells at 4.3 uM in presence of bone-marrow derived stromal cell-conditioned medium; type: functional, cell-based
[6] = system: CCRF-CEM; assay: Potentiation of bortezomib-induced antileukemic activity against human CCRF-CEM cells at 4.3 uM in presence of bone-marrow derived stromal cell-conditioned medium; type: functional, cell-based
[7] = system: CCRF-CEM; assay: Potentiation of GSK126-induced antileukemic activity against human CCRF-CEM cells at 4.3 uM in presence of bone-marrow derived stromal cell-conditioned medium; type: functional, cell-based
[8] = system: CCRF-CEM; assay: Potentiation of hydroxychloroquine-induced antileukemic activity against human CCRF-CEM cells at 4.3 uM in presence of bone-marrow derived stromal cell-conditioned medium; type: functional, cell-based
[9] = system: CCRF-CEM; assay: Potentiation of JQ1-induced antileukemic activity against human CCRF-CEM cells at 4.3 uM in presence of bone-marrow derived stromal cell-conditioned medium; type: functional, cell-based
[10] = system: CCRF-CEM; assay: Potentiation of midostaurin-induced antileukemic activity against human CCRF-CEM cells at 4.3 uM in presence of bone-marrow derived stromal cell-conditioned medium; type: functional, cell-based
[11] = system: CCRF-CEM; assay: Potentiation of navitoclax-induced antileukemic activity against human CCRF-CEM cells at 4.3 uM in presence of bone-marrow derived stromal cell-conditioned medium; type: functional, cell-based
[12] = system: CCRF-CEM; assay: Potentiation of tretinoin-induced antileukemic activity against human CCRF-CEM cells at 4.3 uM in presence of bone-marrow derived stromal cell-conditioned medium; type: functional, cell-based
[13] = system: CCRF-CEM; assay: Potentiation of vincristine-induced antileukemic activity against human CCRF-CEM cells at 4.3 uM in presence of bone-marrow derived stromal cell-conditioned medium; type: functional, cell-based
[14] = system: U-937; assay: Potentiation of afatinib-induced antileukemic activity against human U-937 cells at 4.3 uM in presence of bone-marrow derived stromal cell-conditioned medium; type: functional, cell-based
[15] = system: U-937; assay: Potentiation of asparaginase-induced antileukemic activity against human U-937 cells at 4.3 uM in presence of bone-marrow derived stromal cell-conditioned medium; type: functional, cell-based
[16] = system: U-937; assay: Potentiation of carfilzomib-induced antileukemic activity against human U-937 cells at 4.3 uM in presence of bone-marrow derived stromal cell-conditioned medium; type: functional, cell-based
[17] = system: U-937; assay: Potentiation of EPZ5676-induced antileukemic activity against human U-937 cells at 4.3 uM in presence of bone-marrow derived stromal cell-conditioned medium; type: functional, cell-based
[18] = system: U-937; assay: Potentiation of erlotinib-induced antileukemic activity against human U-937 cells at 4.3 uM in presence of bone-marrow derived stromal cell-conditioned medium; type: functional, cell-based
[19] = system: U-937; assay: Potentiation of GSK2879552-induced antileukemic activity against human U-937 cells at 4.3 uM in presence of bone-marrow derived stromal cell-conditioned medium; type: functional, cell-based
[20] = system: U-937; assay: Potentiation of hydroxychloroquine-induced antileukemic activity against human U-937 cells at 4.3 uM in presence of bone-marrow derived stromal cell-conditioned medium; type: functional, cell-based
[21] = system: U-937; assay: Potentiation of idarubicin-induced antileukemic activity against human U-937 cells at 4.3 uM in presence of bone-marrow derived stromal cell-conditioned medium; type: functional, cell-based
[22] = system: U-937; assay: Potentiation of idasanutlin-induced antileukemic activity against human U-937 cells at 4.3 uM in presence of bone-marrow derived stromal cell-conditioned medium; type: functional, cell-based
[23] = system: U-937; assay: Potentiation of -mastinib -induced antileukemic activity against human U-937 cells at 4.3 uM in presence of bone-marrow derived stromal cell-conditioned medium; type: functional, cell-based
[24] = system: U-937; assay: Potentiation of nelarabine-induced antileukemic activity against human U-937 cells at 4.3 uM in presence of bone-marrow derived stromal cell-conditioned medium; type: functional, cell-based
[25] = system: U-937; assay: Potentiation of -nutlin 3-induced antileukemic activity against human U-937 cells at 4.3 uM in presence of bone-marrow derived stromal cell-conditioned medium; type: functional, cell-based
[26] = system: U-937; assay: Potentiation of olaparid-induced antileukemic activity against human U-937 cells at 4.3 uM in presence of bone-marrow derived stromal cell-conditioned medium; type: functional, cell-based
[27] = system: U-937; assay: Potentiation of vermurafenib-induced antileukemic activity against human U-937 cells at 4.3 uM in presence of bone-marrow derived stromal cell-conditioned medium; type: functional, cell-based
[28] = system: U-937; assay: Potentiation of VX680-induced antileukemic activity against human U-937 cells at 4.3 uM in presence of bone-marrow derived stromal cell-conditioned medium; type: functional, cell-based
[29] = system: MOLM-14; assay: Potentiation of 17AAG-induced antileukemic activity against human MOLM-14 cells at 4.3 uM in presence of bone-marrow derived stromal cell-conditioned medium; type: functional, cell-based
[30] = system: MOLM-14; assay: Potentiation of afatinib-induced antileukemic activity against human MOLM-14 cells at 4.3 uM in presence of bone-marrow derived stromal cell-conditioned medium; type: functional, cell-based
[31] = system: MOLM-14; assay: Potentiation of alisertib-induced antileukemic activity against human MOLM-14 cells at 4.3 uM in presence of bone-marrow derived stromal cell-conditioned medium; type: functional, cell-based
[32] = system: MOLM-14; assay: Potentiation of arsenic-induced antileukemic activity against human MOLM-14 cells at 4.3 uM in presence of bone-marrow derived stromal cell-conditioned medium; type: functional, cell-based
[33] = system: MOLM-14; assay: Potentiation of carfilzomib-induced antileukemic activity against human MOLM-14 cells at 4.3 uM in presence of bone-marrow derived stromal cell-conditioned medium; type: functional, cell-based
[34] = system: MOLM-14; assay: Potentiation of gefitinib-induced antileukemic activity against human MOLM-14 cells at 4.3 uM in presence of bone-marrow derived stromal cell-conditioned medium; type: functional, cell-based
[35] = system: MOLM-14; assay: Potentiation of hydroxychloroquine-induced antileukemic activity against human MOLM-14 cells at 4.3 uM in presence of bone-marrow derived stromal cell-conditioned medium; type: functional, cell-based
[36] = system: MOLM-14; assay: Potentiation of idarubicin-induced antileukemic activity against human MOLM-14 cells at 4.3 uM in presence of bone-marrow derived stromal cell-conditioned medium; type: functional, cell-based
[37] = system: MOLM-14; assay: Potentiation of idelalisib-induced antileukemic activity against human MOLM-14 cells at 4.3 uM in presence of bone-marrow derived stromal cell-conditioned medium; type: functional, cell-based
[38] = system: MOLM-14; assay: Potentiation of -nutlin 3-induced antileukemic activity against human MOLM-14 cells at 4.3 uM in presence of bone-marrow derived stromal cell-conditioned medium; type: functional, cell-based
[39] = system: MOLM-14; assay: Potentiation of OTX015-induced antileukemic activity against human MOLM-14 cells at 4.3 uM in presence of bone-marrow derived stromal cell-conditioned medium; type: functional, cell-based
[40] = system: MOLM-14; assay: Potentiation of temsirolimus-induced antileukemic activity against human MOLM-14 cells at 4.3 uM in presence of bone-marrow derived stromal cell-conditioned medium; type: functional, cell-based
[41] = system: MOLM-14; assay: Potentiation of topotecan-induced antileukemic activity against human MOLM-14 cells at 4.3 uM in presence of bone-marrow derived stromal cell-conditioned medium; type: functional, cell-based

CC(=O)N1CCc2c(sc3nc(SCC(=O)Nc4cccnc4C)n(Cc4ccco4)c(=O)c23)C1
inhibition [1]: 41%
EC50 [2]: > 5 µM
Activity [3]: inactive
Activity [4]: inactive
Activity [5]: inactive
Activity [6]: inactive
Activity [7]: inactive
Activity [8]: inactive
Activity [9]: inactive
Activity [10]: inactive
Activity [11]: inactive
Activity [12]: inactive
Activity [13]: inactive
Activity [14]: inactive
Activity [15]: inactive
Activity [16]: inactive
Activity [17]: inactive
Activity [18]: inactive
Activity [19]: inactive
Activity [20]: inactive
Activity [21]: inactive
Activity [22]: inactive
Activity [23]: inactive
Activity [24]: inactive
Activity [25]: inactive
Activity [26]: inactive
Activity [27]: inactive
Activity [28]: inactive
Activity [29]: inactive
Activity [30]: inactive
Activity [31]: inactive
Activity [32]: inactive
Activity [33]: inactive
Activity [34]: inactive
Activity [35]: inactive
Activity [36]: inactive
Activity [37]: inactive
Activity [38]: inactive
Activity [39]: inactive
Activity [40]: inactive
Activity [41]: inactive
